Laboratory results published in US7230027B2, “Anti-first-pass effect compounds” (Bioavailability Systems, L.L.C., priority 1997, dated 2007).
Read-outs that look alike come from different tables or passages of the source.

Key:
Human Cytochrome P450 [1] = test: Protocol C: human cytochrome P450-mediated biotransformation of terfenadine in human hepatic S9; assay type: biochemical
Experimental: Protocol C: Assessment of Human Cytochrome P450-Mediated Biotransformation
The process of preparing incubation mixtures begins by mixing 10 uL of ethanol or an ethanolic solution containing an inhibitor with 100 uL of 100 mg/mL bovine serum albumin (Sigma) dissolved in reaction buffer at room temperature. Reaction buffer is composed of 0.10 M sodium phosphate, 1.0 mM ethylenediaminetetraacetic acid, and 5.0 mM magnesium chloride, pH 7.4 (all reagents: Fisher Scientific). Inhibitory chemicals used were ketoconazole (Research Diagnostics, Inc.), miconazole, bergapten, xanthotoxin (previous three from Sigma), bergamotin, imperatorin, isopimpinellin, psoralen, angelicin (previous five from Indofine Chemical Company, Inc.), and fractions or precipitates resulting from Protocols A, A′, B, B′, or B″ above. When possible, final inhibitor concentrations were expressed in molarity by calculation from the weighed material or by interpolation from HPLC calibration curves prepared with reference materials; otherwise, concentrations are expressed as weight per volume. Reaction tubes are placed on ice in preparation for the manipulations that follow. Sufficient reaction buffer is added so that the final volume of each tube will be 500 uL, 5 uL of a 100-fold concentrate for generating reduced nicotinamide adenine dinucleotide phosphate is added (such that completed reaction mixture contains 1.0 mM nicotinamide adenine dinucleotide phosphate, 1 U/mL glucose-6-phosphate dehydrogenase, and 10 mM glucose-6-phosphate; all from Sigma), and then human hepatic S9 (Anatomic Gift Foundation) is thawed and added in sufficient amounts to cause readily detectable amounts of metabolites to be formed in control reactions (amount necessary varies among individuals, but 10 uL is typical).
The samples prepared above are readied for HPLC assessment using the protocol that follows. Each tube is vortex mixed and centrifuged for 10 min at setting 35, the resulting supernatant is transferred to a clean tube, and the liquid is evaporated using a Speed Vac apparatus. The residue in each tube is first dissolved in 40 uL 1:1 acetonitrile:water, 2.5 mL of acetonitrile is added, and the centrifuge-transfer-evaporate step just described is repeated.
Linear gradients are used for elution and are formed by mixing mobile phase A composed of water with mobile phase B composed of 0.025% (v/v) formic acid in acetonitrile (instrument: Hewlett Packard). The elution time, in minutes, the percentage of mobile phase B present in the mixed mobile phase, and the flow rate (mL/min) are as follows: 0, 10, 0.10; 2, 10, 0.10; 3.5, 10, 0.20; 4, 10, 0.25; 5, 10, 0.25; 30, 55, 0.25; 32, 98, 0.25; 33, 98, 0.40; 39.8, 98, 0.40; 40, 98, 0.25; 45, 10, 0.25; 45.25, 10, 0.20; 50, 10, 0.20; 50.25, 10, 0.10. The chromatographic column has dimensions of 150 mm length×2.1 mm internal diameter, is packed with a proprietary material (Prism, Keystone Scientific, Inc.), is protected with a 2 mm internal diameter column containing the same material and with a PTFE filter, and is maintained at 35+/−0.2° C. The dry sample residue is mixed with 60 uL of 1:1 acetonitrile:water followed by 40 uL water just prior to each 50.25 min run cycle. The column eluate from each 10 uL injection is monitored for fluorescence with excitation at 228 nm, emission at 291 nm, and bandpass filtration at 280 nm.

Human Cytochrome P450 [2] = test: Protocol C′: human cytochrome P450-mediated biotransformation of saquinavir in human hepatic S9; assay type: biochemical
Experimental: Protocol C′: Assessment of Human Cytochrome P450-Mediated Biotransformation
The process of preparing incubation mixtures begins by mixing 10 uL of ethanol (control reactions) or an ethanolic solution containing an inhibitor with 100 uL of 100 mg/mL bovine serum albumin (Sigma) dissolved in reaction buffer at room temperature. Reaction buffer is composed of 0.10 M sodium phosphate, 1.0 mM ethylenediaminetetraacetic acid, and 5.0 mM magnesium chloride, pH 7.4 (all reagents: Fisher Scientific). […] Sufficient reaction buffer is added so that the final volume of each tube will be 500 uL, 5 uL of a 100-fold concentrate for generating reduced nicotinamide adenine dinucleotide phosphate is added (such that completed reaction mixture contains 1.0 mM nicotinamide adenine dinucleotide phosphate, 1 U/mL glucose-6-phosphate dehydrogenase, and 10 mM glucose-6-phosphate; all from Sigma), and then human hepatic S9 (Anatomic Gift Foundation) is thawed and added in sufficient amounts to cause readily detectable amounts of metabolites to be formed in control reactions (amount necessary varies among individuals, but 10 uL is typical). […]
The samples prepared above are readied for HPLC assessment using the protocol that follows. […]

[3] = heart transplant patients, cyclosporin co-administered with ketoconazole; cited from earlier work
[4] = oral tablet; cited from earlier work
[5] = protocol not given, Protocol C or C′

Compound | first-pass effect inhibition, determined herein (Human Cytochrome P450 [1]) | first-pass effect inhibition, determined herein (Human Cytochrome P450 [1]; [5]) | further results
O=c1ccc2ccc3occc3c2o1 [angelicin] | – | ineffective | –
CC(C)=CCOc1c2occc2cc2ccc(=O)oc12 [imperatorin] | – | ineffective | first-pass inhibition (generation of saquinavir metabolites in presence of inhibitor) (Human Cytochrome P450 [2]; Protocol C′, human hepatic S9, FIG. 1): essentially ineffective
CC(=O)N1CCN(c2ccc(OCC3COC(Cn4ccnc4)(c4ccc(Cl)cc4Cl)O3)cc2)CC1 (centres unmarked) [ketoconazole] | – | – | reduction of the dose of cyclosporin required [3]: approximately 85%
C/C(=C\COc1ccc2ccc(=O)oc2c1)CC[C@@H](O)C(C)(C)O [marmin] | ineffective | – | –
O=c1ccc2cc3ccoc3cc2o1 [psoralen] | – | ineffective | –
CC(C)(C)c1ccc(C(O)CCCN2CCC(C(O)(c3ccccc3)c3ccccc3)CC2)cc1 (centres unmarked) [terfenadine] | – | – | part of a tablet given by mouth quickly changed to metabolites [4]: 99.5%

The next lines start with results.

first-pass effect inhibition, determined herein (Human Cytochrome P450 [1]) | Compound | first-pass effect inhibition, determined herein (Human Cytochrome P450 [1]; [5]) | further results
ineffective | CC(=CCOc1c2ccoc2cc2oc(=O)ccc12)CCC(O)C(C)(C)O (centres unmarked) [6′,7′-dihydroxybergamottin] | – | –
ineffective | CC(C)=CCC/C(C)=C/COc1c2ccoc2cc2oc(=O)ccc12 [bergamottin] | – | first-pass inhibition (generation of saquinavir metabolites in presence of inhibitor) (Human Cytochrome P450 [2]): essentially ineffective
ineffective | COc1c2ccoc2c(OC)c2oc(=O)ccc12 [isopimpinellin] | – | –
